Among the data in PubChem BioAssay AID256 (DTP/NCI, 2004) are T/C values, retold here.

The assay relates to CD2F1 mice, L1210 leukemia ip, survival T/C. Briefly: NCI In Vivo Anticancer Drug Screen. Data for tumor model L1210 Leukemia (intraperitoneal) in CD2F1 (CDF1) mice. To be noted: higher = longer survival. The essentials: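 Activity against a transplanted murine tumor was judged by comparing the compound group with a vehicle group. The outcome in the treated animals was divided by that in the controls.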

Where [1] appears, read: endpoint: mean survival time, dose: 100.0 mg/kg/injection, schedule: Q04DX003 (ip), vehicle: saline.
[2] abbreviates: endpoint: mean survival time, dose: 200.0 mg/kg/injection, schedule: Q04DX003 (ip), vehicle: saline.
Where [3] appears, read: endpoint: mean survival time, dose: 50.0 mg/kg/injection, schedule: Q01DX009 (ip), vehicle: saline with Tween-80.
[4] abbreviates: endpoint: mean survival time, dose: 100.0 mg/kg/injection, schedule: Q01DX009 (ip), vehicle: saline with Tween-80.
Where [5] appears, read: endpoint: mean survival time, dose: 200.0 mg/kg/injection, schedule: Q01DX009 (ip), vehicle: saline with Tween-80.
The mark [6] stands for this setting: endpoint: mean survival time, dose: 25.0 mg/kg/injection, schedule: Q04DX003 (ip), vehicle: Klucel (hydroxypropylcellulose) (HPC).
Setting [7] is: endpoint: mean survival time, dose: 50.0 mg/kg/injection, schedule: Q04DX003 (ip), vehicle: Klucel (hydroxypropylcellulose) (HPC).
Where [8] appears, read: endpoint: mean survival time, dose: 100.0 mg/kg/injection, schedule: Q04DX003 (ip), vehicle: Klucel (hydroxypropylcellulose) (HPC).
The mark [9] stands for this setting: endpoint: mean survival time, dose: 200.0 mg/kg/injection, schedule: Q04DX003 (ip), vehicle: Klucel (hydroxypropylcellulose) (HPC).

Each structure is given as a SMILES string. Values joined by “and” are separate entries in the source; they are usually repeats but may differ in a detail not shown here. Equal values may be shown once. Toxic doses and inconclusive results are not listed.

As to `Cc1ccc(S(=O)(=O)OC2CNP(=O)(N(CCCl)CCCl)OC2)cc1` (configuration not stated), the T/C was 96 % of control (endpoint: mean survival time, dose: 25.0 mg/kg/injection, schedule: Q01DX001 (ip), vehicle: DMSO); 100 % of control (endpoint: mean survival time, dose: 50.0 mg/kg/injection, schedule: Q01DX001 (ip), vehicle: DMSO); 94 % of control (endpoint: mean survival time, dose: 100.0 mg/kg/injection, schedule: Q01DX001 (ip), vehicle: DMSO); 100 % of control (endpoint: mean survival time, dose: 200.0 mg/kg/injection, schedule: Q01DX001 (ip), vehicle: DMSO); 98 % of control (endpoint: mean survival time, dose: 400.0 mg/kg/injection, schedule: Q01DX001 (ip), vehicle: DMSO); 91 % of control (endpoint: mean survival time, dose: 800.0 mg/kg/injection, schedule: Q01DX001 (ip), vehicle: DMSO).

For the molecule `S=[As](c1ccccc1)(c1ccccc1)c1ccccc1`, the T/C reads like this: (endpoint: mean survival time, dose: 100.0 mg/kg/injection, schedule: Q01DX001 (ip), vehicle: saline) 103 % of control; (endpoint: mean survival time, dose: 200.0 mg/kg/injection, schedule: Q01DX001 (ip), vehicle: saline) 100 % of control; (endpoint: mean survival time, dose: 400.0 mg/kg/injection, schedule: Q01DX001 (ip), vehicle: saline) 91 % of control.

With `C[N+]12CCN(CC1)CC2.[Cl][Pt]([Cl])[Cl]`, the T/C is, setting by setting: (endpoint: mean survival time, dose: 12.5 mg/kg/injection, schedule: Q04DX003 (ip), vehicle: saline) 101 % of control; (endpoint: mean survival time, dose: 25.0 mg/kg/injection, schedule: Q04DX003 (ip), vehicle: saline) 98 % of control; (endpoint: mean survival time, dose: 50.0 mg/kg/injection, schedule: Q04DX003 (ip), vehicle: saline) 106 % of control; under setting [1], 113 % of control; under setting [2], 104 % of control.

Consider `CC(C(=O)OC1CCCC2OC12)S(=O)(=O)c1ccccc1` (configuration not stated), for which the T/C under setting [3] was 90 % of control, the T/C under setting [4] was 94 % of control and the T/C under setting [5] was 94 % of control.

Take `CCOC(=O)C(CC(=O)O)=C1c2ccccc2-c2ccccc21`: the T/C under setting [6] is 96 % of control, the T/C under setting [7] was 93 % of control, the T/C under setting [8] is 87 % of control and the T/C under setting [9] was 93 % of control.

Take `COC(=O)CCC([NH-])C(=O)O.COC(=O)CCC([NH-])C(=O)O.[NH-]C1CCCCC1[NH-].[Pt+4]` (configuration not stated): the T/C was 100 % of control (endpoint: median survival time, dose: 6.25 mg/kg/injection, schedule: Q04DX003 (ip), vehicle: saline); 96 % of control (endpoint: median survival time, dose: 12.5 mg/kg/injection, schedule: Q04DX003 (ip), vehicle: saline); 97 % of control (endpoint: median survival time, dose: 25.0 mg/kg/injection, schedule: Q04DX003 (ip), vehicle: saline); 108 % of control (endpoint: median survival time, dose: 50.0 mg/kg/injection, schedule: Q04DX003 (ip), vehicle: saline); 110 % of control (endpoint: median survival time, dose: 100.0 mg/kg/injection, schedule: Q04DX003 (ip), vehicle: saline).

Regarding `Cc1cc(=O)[nH]c(-c2ccccc2)c1C(=O)O`, the T/C is 95 % of control (endpoint: mean survival time, dose: 100.0 mg/kg/injection, schedule: Q04DX002 (ip), vehicle: saline with Tween-80); 95 % of control (endpoint: mean survival time, dose: 200.0 mg/kg/injection, schedule: Q04DX002 (ip), vehicle: saline with Tween-80); 95 % of control (endpoint: mean survival time, dose: 400.0 mg/kg/injection, schedule: Q04DX002 (ip), vehicle: saline with Tween-80).

Turning to `CC[C@@]1(O)C(=O)OCc2c1cc1n(c2=O)Cc2cc3ccccc3nc2-1`, the T/C was 120 % of control (endpoint: mean survival time, dose: 0.78 mg/kg/injection, schedule: Q04DX003 (ip), vehicle: water); 156 % of control (endpoint: mean survival time, dose: 1.56 mg/kg/injection, schedule: Q04DX003 (ip), vehicle: water); 159 % of control (endpoint: mean survival time, dose: 3.13 mg/kg/injection, schedule: Q04DX003 (ip), vehicle: other); 156 % of control (endpoint: mean survival time, dose: 3.13 mg/kg/injection, schedule: Q04DX003 (ip), vehicle: water); 124 % of control (endpoint: mean survival time, dose: 6.25 mg/kg/injection, schedule: Q04DX003 (ip), vehicle: other); 95 % of control (endpoint: mean survival time, dose: 12.5 mg/kg/injection, schedule: Q04DX003 (ip), vehicle: water). The T/C (endpoint: mean survival time, dose: 25.0 mg/kg/injection, schedule: Q04DX003 (ip), vehicle: other) is 119 % of control.

For the molecule `Cc1ccc(NC(=O)Oc2cc(C)c(Cl)c(C)c2Cl)c(C)c1`, the T/C is 89 % of control under setting [3], 101 % of control under setting [4] and 104 % of control under setting [5].

`O=C1CCC2(CCC(=O)O2)O1`: the T/C is 94 % of control under setting [1]; 100 % of control under setting [2]; 93 % of control (endpoint: mean survival time, dose: 400.0 mg/kg/injection, schedule: Q04DX003 (ip), vehicle: saline).

For `F[B-](F)(F)F`, the T/C was 94 % of control and 106 % of control (endpoint: mean survival time, dose: 12.5 mg/kg/injection, schedule: Q01DX009 (ip), vehicle: gum acacia); 98 % of control (endpoint: mean survival time, dose: 25.0 mg/kg/injection, schedule: Q01DX009 (ip), vehicle: gum acacia); 96 % of control and 106 % of control (endpoint: mean survival time, dose: 50.0 mg/kg/injection, schedule: Q01DX009 (ip), vehicle: gum acacia); 95 % of control and 101 % of control (endpoint: mean survival time, dose: 100.0 mg/kg/injection, schedule: Q01DX009 (ip), vehicle: gum acacia); 109 % of control (endpoint: mean survival time, dose: 200.0 mg/kg/injection, schedule: Q01DX009 (ip), vehicle: gum acacia); 98 % of control (endpoint: mean survival time, dose: 400.0 mg/kg/injection, schedule: Q01DX009 (ip), vehicle: gum acacia).

Consider `CCCCNc1ccc2nnc(C)n2n1`, for which the T/C (endpoint: median survival time, dose: 50.0 mg/kg/injection, schedule: Q01DX005 (ip), vehicle: DMSO) was 100 % of control and 101 % of control; the T/C (endpoint: median survival time, dose: 100.0 mg/kg/injection, schedule: Q01DX005 (ip), vehicle: DMSO) is 97 % of control and 100 % of control; the T/C (endpoint: median survival time, dose: 200.0 mg/kg/injection, schedule: Q01DX005 (ip), vehicle: DMSO) was 104 % of control.

Regarding `O=Cc1ccc(N=Nc2c(S(=O)(=O)O)cc3cc(S(=O)(=O)O)cc(O)c3c2O)cc1`, the T/C by setting is: under setting [4], 100 % of control; (endpoint: mean survival time, dose: 100.0 mg/kg/injection, schedule: Q04DX003 (ip), vehicle: saline with Tween-80) 96 % of control; under setting [5], 88 % of control; (endpoint: mean survival time, dose: 400.0 mg/kg/injection, schedule: Q04DX003 (ip), vehicle: saline with Tween-80) 88 % of control.

Take `N#CC(=N)C(C#N)C#N`: the T/C runs as follows: (endpoint: mean survival time, dose: 12.5 mg/kg/injection, schedule: Q04DX002 (ip), vehicle: saline with Tween-80) 93 % of control; (endpoint: mean survival time, dose: 25.0 mg/kg/injection, schedule: Q04DX002 (ip), vehicle: saline with Tween-80) 93 % of control; (endpoint: mean survival time, dose: 50.0 mg/kg/injection, schedule: Q04DX002 (ip), vehicle: saline with Tween-80) 108 % of control.

Regarding `CN(C)C(=C1C=CC=C1)N(C)C`, the T/C (endpoint: mean survival time, dose: 75.0 mg/kg/injection, schedule: Q01DX001 (ip), vehicle: saline) is 95 % of control.

`NC(CSC1(c2cccc3ccccc23)c2ccccc2-c2ccccc21)C(=O)O` (configuration not stated): the T/C was 94 % of control (endpoint: mean survival time, dose: 25.0 mg/kg/injection, schedule: Q01DX009 (ip), vehicle: saline); 96 % of control (endpoint: mean survival time, dose: 50.0 mg/kg/injection, schedule: Q01DX009 (ip), vehicle: saline); 96 % of control (endpoint: mean survival time, dose: 100.0 mg/kg/injection, schedule: Q01DX009 (ip), vehicle: saline); 94 % of control (endpoint: mean survival time, dose: 200.0 mg/kg/injection, schedule: Q01DX009 (ip), vehicle: saline); 94 % of control (endpoint: mean survival time, dose: 400.0 mg/kg/injection, schedule: Q01DX009 (ip), vehicle: saline).

For `CC12CCC(=O)C=C1CCC1C2C(=O)CC2(C)C1CCC2(O)C(=O)Cn1c(=O)cc[nH]c1=O` (configuration not stated), the T/C by setting is: (endpoint: mean survival time, dose: 12.5 mg/kg/injection, schedule: Q04DX003 (ip), vehicle: Klucel (hydroxypropylcellulose) (HPC)) 96 % of control; under setting [6], 96 % of control; under setting [7], 103 % of control; under setting [8], 97 % of control; under setting [9], 97 % of control.

Take `CC(C)NC(=O)Oc1ccccc1C(=O)OCc1ccccc1`: the T/C was 115 % of control (endpoint: mean survival time, dose: 50.0 mg/kg/injection, schedule: Q01DX009 (ip), vehicle: Klucel (hydroxypropylcellulose) (HPC)); 108 % of control (endpoint: mean survival time, dose: 100.0 mg/kg/injection, schedule: Q01DX009 (ip), vehicle: Klucel (hydroxypropylcellulose) (HPC)); 112 % of control (endpoint: mean survival time, dose: 200.0 mg/kg/injection, schedule: Q01DX009 (ip), vehicle: Klucel (hydroxypropylcellulose) (HPC)).
